Results on 24 molecules are retold here after patent US12473304B2, “Heterocyclic PAD4 inhibitors” (BRISTOL-MYERS SQUIBB COMPANY, priority 2020, dated 2025).

Sequence of human PAD4 (hPAD4) (Q9UM07 whole entry): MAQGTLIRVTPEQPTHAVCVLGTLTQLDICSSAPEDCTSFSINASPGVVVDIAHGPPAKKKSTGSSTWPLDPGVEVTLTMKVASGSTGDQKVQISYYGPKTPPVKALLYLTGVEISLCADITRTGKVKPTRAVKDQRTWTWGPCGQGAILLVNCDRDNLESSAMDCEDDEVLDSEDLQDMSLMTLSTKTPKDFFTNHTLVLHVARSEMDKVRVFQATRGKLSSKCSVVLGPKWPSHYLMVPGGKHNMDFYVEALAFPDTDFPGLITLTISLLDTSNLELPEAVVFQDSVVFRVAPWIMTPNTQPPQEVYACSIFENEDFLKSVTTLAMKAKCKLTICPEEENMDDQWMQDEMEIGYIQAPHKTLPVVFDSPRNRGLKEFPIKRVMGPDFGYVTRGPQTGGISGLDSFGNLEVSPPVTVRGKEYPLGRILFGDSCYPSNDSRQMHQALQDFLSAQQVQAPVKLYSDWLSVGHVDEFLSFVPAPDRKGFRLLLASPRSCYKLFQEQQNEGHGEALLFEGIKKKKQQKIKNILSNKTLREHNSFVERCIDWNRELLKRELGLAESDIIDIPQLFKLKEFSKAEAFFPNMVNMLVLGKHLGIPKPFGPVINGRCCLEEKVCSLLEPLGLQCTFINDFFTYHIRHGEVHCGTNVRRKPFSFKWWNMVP

This test addresses human PAD4 (hPAD4) (Homo sapiens (Human), UniProt Q9UM07). Briefly: RFMS Human PAD4 Functional Assay 1. It is filed as biochemical. Particulars: RFMS assay 1; 5 nM hPAD4, 250 μM BAEE substrate, 50 μM calcium, 37° C. In a few lines:
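Citrullination product read by RapidFire triple-quad MRM against a modified-citrulline internal standard, after TCA stop and 30 min phenyl glyoxal step at 37 °C. Reaction: 250 μM BAEE, 5 nM human PAD4, 90 min at 37 °C, pH 7.5 HEPES buffer with 50 μM calcium and 5 μM TPEN, following 30 min compound–enzyme preincubation (max 50 μM).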
As to `COc1cc(C(=O)N2CC3CCC2[C@@H]3N)cc2sc(-c3cc4ccc(N5CCC(OC)CC5)cc4n3CC3CC3)c(C)c12` (stereo partly drawn) [Example 131, ((7R)-7-Amino-2-azabicyclo[2.2.1]heptan-2-yl)(2-(1-(cyclopropylmethyl)-6-(4-methoxypiperidin-1-yl)-1H-indol-2-yl)-4-methoxy-3-methylbenzo[b]thiophen-6-yl)methanone], the half-inhibitory concentration (IC50) is 0.146 µM.
`COc1cc(C(=O)N2C[C@H](N)C[C@@H](F)C2)cn2nc(-c3cc4cccc(C5CCN(C(=O)C6CC(O)C6)CC5)c4n3CC3CC3)c(C)c12` (single isomer, unassigned) [Example 390]: the IC50 amounted to 0.005 µM.
The result for `Cc1c(-c2cc3ccc(-c4ccn5c(C)nnc5c4)cc3n2CC2CC2)oc2cc(C(=O)N3C[C@H](N)C[C@@H](F)C3)ccc12` [Example 197, ((3R,5R)-3-Amino-5-fluoropiperidin-1-yl)(2-(1-(cyclopropylmethyl)-6-(3-methyl-[1,2,4]triazolo[4,3-a]pyridin-7-yl)-1H-indol-2-yl)-3-methylbenzofuran-6-yl)methanone] reads 0.317 µM; that for `COc1cc(C(=O)N2C[C@H](N)C[C@@H](F)C2)cn2nc(-c3cc4cccc(C5CCN(C(=O)C6CCCO6)CC5)c4n3CC3CC3)c(C)c12` (single isomer, unassigned) [Example 397], 0.04 µM.
The result for `Cc1c(-c2cc3ccc(-c4cccc5[nH]nc(F)c45)cc3n2CC2CC2)nn2cc(C(=O)N3CC4CCC3[C@@H]4N)ccc12` (stereo partly drawn) [Example 327, (7R)-2-{2-[1-(Cyclopropylmethyl)-6-(3-fluoro-1H-indazol-4-yl)-1H-indol-2-yl]-3-methylpyrazolo[1,5-a]pyridine-6-carbonyl}-2-azabicyclo[2.2.1]heptan-7-amine] reads 0.07 µM.
The figure for `COc1cc(C(=O)N2CCC[C@@H](N)C2)cn2nc(-c3cc4cccc(OCC5CNC(=O)C5)c4n3CC3CC3)c(C)c12` (single isomer, unassigned) [Example 562] is 0.14 µM; for `CC(=O)N1CCC(c2cccc3cc(-c4nn5cc(C(=O)N6CC7CCC6[C@@H]7N)ccc5c4C)n(CC4CC4)c23)CC1` (stereo partly drawn) [Example 477, 1-(4-(2-(6-((7R)-7-Amino-2-azabicyclo[2.2.1]heptane-2-carbonyl)-3-methylpyrazolo[1,5-a]pyridin-2-yl)-1-(cyclopropylmethyl)-1H-indol-7-yl)piperidin-1-yl)ethan-1-one] it is 0.02 µM; for `Cc1c(-c2cc3ccc(-c4cccc(O)c4F)nc3n2CC2CC2)nn2cc(C(=O)N3C[C@H](N)C[C@@H](F)C3)cc(F)c12` [Example 55, ((3R,5R)-3-Amino-5-fluoropiperidin-1-yl)(2-(1-(cyclopropylmethyl)-6-(2-fluoro-3-hydroxyphenyl)-1H-pyrrolo[2,3-b]pyridin-2-yl)-4-fluoro-3-methylpyrazolo[1,5-a]pyridin-6-yl)methanone] it is 0.543 µM.
For `COc1cc(C(=O)N2C[C@H](N)C[C@@H](F)C2)cn2nc(-c3cc4ccc(-c5ccc(CNC(C)=O)cc5)cc4n3CC3CC3)c(C)c12` [Example 221, N-{[4-(2-{6-[(3R,5R)-3-Amino-5-fluoropiperidine-1-carbonyl]-4-methoxy-3-methylpyrazolo[1,5-a]pyridin-2-yl}-1-(cyclopropylmethyl)-1H-indol-6-yl)phenyl]methyl}acetamide], the IC50 came out at 0.51 µM.
With `Cc1c(-c2cc3cccc(OCC4CC(=O)N(C)C4)c3n2CC2CC2)nn2cc(C(=O)N3CCC[C@@H](N)C3)ccc12` (single isomer, unassigned) [Example 578], the concentration for half-maximal inhibition (IC50) was 0.19 µM.
The figure for `COc1cc(C(=O)N2CCC[C@@H](N)C2)cn2nc(-c3cc4cc(F)cc(C5CCN(C(C)=O)CC5)c4n3CC3CC3)c(C)c12` [Example 483, (R)-1-(4-(2-(6-(3-Aminopiperidine-1-carbonyl)-4-methoxy-3-methylpyrazolo[1,5-a]pyridin-2-yl)-1-(cyclopropylmethyl)-5-fluoro-1H-indol-7-yl)piperidin-1-yl)ethan-1-one] is 0.15 µM.
On to `Cc1c(-c2cc3ccc(-c4cc(Cl)c(CO)cc4F)cc3n2CC2CC2)nn2cc(C(=O)N3C[C@H](N)C[C@@H](F)C3)ccc12` [Example 375, [4-(2-{6-[(3R,5R)-3-Amino-5-fluoropiperidine-1-carbonyl]-3-methylpyrazolo[1,5-a]pyridin-2-yl}-1-(cyclopropylmethyl)-1H-indol-6-yl)-2-chloro-5-fluorophenyl]methanol], for which the IC50 is 1.36 µM.
The result for `Cc1c(-c2cc3ccc(-c4ccc5c(c4)CNC5=O)nc3n2CC2CC2)nn2cc(C(=O)N3CCC[C@@H](N)C3)cc(F)c12` [Example 284, 5-(2-{6-[(3R)-3-Aminopiperidine-1-carbonyl]-4-fluoro-3-methylpyrazolo[1,5-a]pyridin-2-yl}-1-(cyclopropylmethyl)-1H-pyrrolo[2,3-b]pyridin-6-yl)-2,3-dihydro-1H-isoindol-1-one] reads 1.86 µM.
The result for `Cc1c(-c2cc3ccc(-c4ccccc4N4CCNC4=O)nc3n2CC2CC2)nn2cc(C(=O)N3CC4CCC3[C@@H]4N)ccc12` (stereo partly drawn) [Example 302, 1-[2-(2-{6-[(7R)-7-Amino-2-azabicyclo[2.2.1]heptane-2-carbonyl]-3-methylpyrazolo[1,5-a]pyridin-2-yl}-1-(cyclopropylmethyl)-1H-pyrrolo[2,3-b]pyridin-6-yl)phenyl]imidazolidin-2-one] reads 0.12 µM; that for `Cc1c(-c2cc3cc(F)cc(C4CCN(C(=O)C5CC(O)(C(F)(F)F)C5)CC4)c3n2CC2CC2)nn2cc(C(=O)N3C[C@H](N)C[C@@H](F)C3)ccc12` (mixture of isomers) [Example 505, ((3R,5R)-3-Amino-5-fluoropiperidin-1-yl)(2-(1-(cyclopropylmethyl)-5-fluoro-7-(1-(3-hydroxy-3-(trifluoromethyl)cyclobutane-1-carbonyl)piperidin-4-yl)-1H-indol-2-yl)-3-methylpyrazolo[1,5-a]pyridin-6-yl)methanone], 0.06 µM.
The result for `Cc1c(-c2cc3ccc(-c4ccc(C(N)=O)cc4Cl)cc3n2CC2CC2)nn2cc(C(=O)N3C[C@H](N)C[C@@H](F)C3)ccc12` [Example 377, 4-(2-{6-[(3R,5R)-3-Amino-5-fluoropiperidine-1-carbonyl]-3-methylpyrazolo[1,5-a]pyridin-2-yl}-1-(cyclopropylmethyl)-1H-indol-6-yl)-3-chlorobenzamide] reads 0.09 µM; that for `COCC(=O)N1CC(c2cccc3cc(-c4nn5cc(C(=O)N6C[C@H](N)C[C@@H](F)C6)ccc5c4C)n(CC4CC4)c23)C1` [Example 547, 1-(3-(2-(6-((3R,5R)-3-Amino-5-fluoropiperidine-1-carbonyl)-3-methylpyrazolo[1,5-a]pyridin-2-yl)-1-(cyclopropylmethyl)-1H-indol-7-yl)azetidin-1-yl)-2-methoxyethan-1-one], 0.49 µM; that for `Cc1c(-c2cc3cc(F)cc(C4CCN(C(=O)C5CCCCO5)CC4)c3n2CC2CC2)nn2cc(C(=O)N3C[C@H](N)C[C@@H](F)C3)ccc12` (mixture of isomers) [Example 509, ((3R,5R)-3-Amino-5-fluoropiperidin-1-yl)(2-(1-(cyclopropylmethyl)-5-fluoro-7-(1-(tetrahydro-2H-pyran-2-carbonyl)piperidin-4-yl)-1H-indol-2-yl)-3-methylpyrazolo[1,5-a]pyridin-6-yl)methanone], 0.35 µM.
In the case of `Cc1c(-c2cc3ccc(-c4ccc(C(N)=O)c(F)c4)nc3n2CC2CC2)nn2cc(C(=O)N3CC4CCC3[C@@H]4N)cnc12` (stereo partly drawn) [Example 112, 4-(2-(6-((7R)-7-Amino-2-azabicyclo[2.2.1]heptane-2-carbonyl)-3-methylpyrazolo[1,5-a]pyrimidin-2-yl)-1-(cyclopropylmethyl)-1H-pyrrolo[2,3-b]pyridin-6-yl)-2-fluorobenzamide], the IC50 stood at 0.572 µM.
The figure for `Cc1c(-c2cc3ccc(N4CCC(N5CCOC5=O)CC4)cc3n2CC2CC2)nn2cc(C(=O)N3C[C@H](N)C[C@@H](F)C3)ccc12` [Example 357, 3-[1-(2-{6-[(3R,5R)-3-Amino-5-fluoropiperidine-1-carbonyl]-3-methylpyrazolo[1,5-a]pyridin-2-yl}-1-(cyclopropylmethyl)-1H-indol-6-yl)piperidin-4-yl]-l,3-oxazolidin-2-one] is 0.05 µM.
The figure for `Cc1c(-c2cc3ccc(-c4ccc5c(c4)CNC5=O)cc3n2CC2CC2)oc2cc(C(=O)N3CC4CCC3[C@@H]4N)ccc12` (stereo partly drawn) [Example 178, 5-(2-(6-((7R)-7-Amino-2-azabicyclo[2.2.1]heptane-2-carbonyl)-3-methylbenzofuran-2-yl)-1-(cyclopropylmethyl)-1H-indol-6-yl)isoindolin-1-one] is 0.153 µM; for `COc1cc(C(=O)N2CCC[C@@H](N)C2)cn2nc(-c3cc4ccc(-c5cc(F)c6[nH]c(=O)ccc6c5C)cc4n3CC3CC3)c(C)c12` [Example 239, 6-(2-{6-[(3R)-3-Aminopiperidine-1-carbonyl]-4-methoxy-3-methylpyrazolo[1,5-a]pyridin-2-yl}-1-(cyclopropylmethyl)-1H-indol-6-yl)-8-fluoro-5-methyl-1,2-dihydroquinolin-2-one] it is 0.07 µM; for `COc1cc(C(=O)N2C[C@H](N)C[C@@H](F)C2)cn2nc(-c3cc4ccc(NC[C@@H](F)C(C)(C)O)cc4n3CC3CC3)c(C)c12` [Example 36, ((3R,5R)-3-Amino-5-fluoropiperidin-1-yl)(2-(1-(cyclopropylmethyl)-6-(((R)-2-fluoro-3-hydroxy-3-methylbutyl)amino)-1H-indol-2-yl)-4-methoxy-3-methylpyrazolo[1,5-a]pyridin-6-yl)methanone] it is 0.782 µM.
The figure for `Cc1c(-c2cc3ccc(-c4ccc(C(N)=O)c(F)c4)cc3n2CC2CC2)oc2cc(C(=O)N3CC4CCC3[C@@H]4N)ccc12` (stereo partly drawn) [Example 185, 4-(2-(6-((7R)-7-Amino-2-azabicyclo[2.2.1]heptane-2-carbonyl)-3-methylbenzofuran-2-yl)-1-(cyclopropylmethyl)-1H-indol-6-yl)-2-fluorobenzamide] is 0.025 µM.
